Experimental data taken from patent US7670838B2, “Coupling of excitation and neurogenesis in neural stem/progenitor cells” (priority 2004, dated 2010).
Entries after “also recorded” stand apart in the source; their conditions may differ.

What was measured:
[1] = rat, in vivo
[2] = test system: adult hippocampal NPCs in vivo; experiment: In vivo neurogenesis assay (BrdU labeling, hippocampus); parameters: species or system rat; conditions: for neuronal fraction of newborn cells: 1 mg/kg
[3] = test system: adult hippocampal NPCs; experiment: Neurogenesis from adult NPCs on ethanol-fixed hippocampal substrate (MAP2ab); format: cell-based, rat; conditions: for neurogenesis with the agonist as stimulus: FPL 64176 5 μM, NMDA 50 μM
Method: Hippocampal cell culture. […] Tissue was treated with papain (20 U/ml) in 10 ml of this solution with additional (in mM) 1.7 cysteine, 1 CaCl2, and 0.5 EDTA for 45 min at 37° C. The digestion was stopped by replacing the solution with 10 ml of MEM/Earle's salts without L-glutamine along with 20 mM glucose, Serum Extender (1:1000), and 10% heat-inactivated fetal bovine serum containing 25 mg of bovine serum albumin (BSA) and 25 mg of trypsin inhibitor. The tissue was triturated in a small volume of this solution with a fire-polished Pasteur pipette, and ˜100,000 cells in 1 mL plated per coverslip in 24-well plates. Glass coverslips (pre-washed overnight in HCl followed by several 100% EtOH washes and flame sterilization) were coated overnight at 37° C. with 1:50 Matrigel (Collaborative Biomedical Products, Bedford, Mass.). Cells were plated in culture medium, Neurobasal containing 2× B-27 (Life Technologies) and 2 mM Glutamax-I (Life Technologies). […] For lightly fixed tissue experiments, stem/progenitor cells were plated after hippocampal cultures at 7 DIV were exposed to 70% EtOH at −20° C. for 30 min, then washed 2× in sterile PBS.
(§1) Stem cell coculture. […] Mitotic inhibitor FUDR (5-fluoro-2′-deoxyuridine) was included with uridine at 0.3 mM unless otherwise indicated at the start of the sixth day post-plating, after cell cycle exit and initiation of differentiation, to allow for long term culture (in some experiments 50 μM D-AP5 (RBI) was also included as noted in the text). Thereafter cultures were supplemented with NT3 to 20 ng/mL every 2-3 days until cocultures were 9-16 days old (control and experimental conditions were always conducted in parallel and therefore were age-matched at all times), at which point neurogenesis assays were performed.
(§2) Excitation of NPCs in coculture. […] Divalent cation concentration was maintained constant in external calcium variation experiments by replacement with equimolar magnesium. […] Persistent stimuli were used except where noted, to mimic areas of local persistent high activity and to avoid rebound or washoff effects. […] An advantage of using depolarization for these brief stimuli is that the logarithmic dependence of depolarization on extracellular potassium described by the Nernst equation obviates the need for extensive washing of the stimulated sample prior to reapplication of the control medium.
(§3) Immunocytochemistry and transfection. Cells were fixed in 4% formaldehyde (EM Sciences)/PBS for 20-30 min, washed 3×5 min in PBS/0.1 M glycine, permeabilized for 5 min in 0.1% Triton/PBS/3% BSA, washed 3×5 min in PBS/glycine, blocked for 1-2 hr in PBS/3% BSA, and incubated overnight at 4° C. in PBS/3%BSA/primary antibodies. Cells were then washed 3×5 min in PBS, incubated for 1 hr at 37° C. in PBS/3%BSA/secondary antibodies, washed 3×10 min in PBS, and mounted in Fluoromount (Electron Microscopy Sciences). TUNEL staining was performed with Apoptag Red (Serologicals). […] Cotransfections were carried out with Lipofectamine 2000 according to the manufacturer's instructions immediately after NPC plating. […] As with all experiments, stimulation or control conditions were initiated 24 hr after transfection on Day 1.
Confocal imaging and analysis. Images were acquired on a Zeiss LSM confocal microscope. Random fields containing GFP+ cells were selected for acquisition under GFP excitation without knowledge of experimental condition, and subsequently scanned using laser lines appropriate to excite the fluorophores corresponding to MAP2ab and other antigens. Data were analyzed using Metamorph software from Universal Imaging.

[4] = test system: adult rat hippocampal NPCs; experiment: Neurogenesis from adult NPCs in living hippocampal coculture (MAP2ab); format: cell-based
Method: as §1, §2, §3
Confocal imaging and analysis. Images were acquired on a Zeiss LSM confocal microscope. Random fields containing GFP+ cells were selected for acquisition under GFP excitation without knowledge of experimental condition, and subsequently scanned using laser lines appropriate to excite the fluorophores corresponding to MAP2ab and other antigens. Data were analyzed using Metamorph software from Universal Imaging. […] Mean data from 12 independent experiments conducted with potassium depolarization were used as the reference point for effects of pharmacological interventions in coculture. For evaluation of proliferation and survival effects, daily cell counts as well as TUNEL and BrdU staining were performed in parallel stimulated and unstimulated cultures. BrdU was applied to cultures at 5 μM for 2 hr, and BrdU staining was conducted with a 20-30 min postfixation and subsequent incubation at 37° C. for 20-30 min in 1 N HCl. For Ca^2+ imaging, x-Rhod-1 AM (Molecular Probes) was loaded at 10 μM for 30 min at 37° C. into cells on the fixed coculture substrate 1-2 days after initiation of mitogen taper.

[5] = Tolerability of treatments in the in vivo neurogenesis assay; conditions: 4 mg/kg
[6] = test system: voltage-activated Na+ current; format: cell-based, rat
[7] = test system: proliferating adult-derived NPCs; format: cell-based, rat; conditions: fixed substrate; x-Rhod-1
[8] = test system: adult rat hippocampal NPCs; experiment: Miniature EPSC recording of NPC progeny in coculture; format: cell-based; conditions: living coculture
[9] = rats, 1 mg/kg for 1 week, 30 days after treatment
[10] = anti-mitotic agent added at day 1
[11] = adult rats, 4 mg/kg daily for 1 week, not statistically significant

COC(=O)C1=C(C)NC(C)=C([N+](=O)[O-])C1c1ccccc1C(F)(F)F (centres unmarked) [BayK 8644]
tolerability [1]: well-tolerated
increase in total newborn cell number versus control [2, 9]: 2.5 fold
neuronal fraction of newborn cells [2, 9]: 120±11 % of control
neuronal fraction of newborn cells ([2]; rats, 1 mg/kg for 1 week, 30 days after treatment, listed as BayK): 120%±11%
total BrdU+ cells per hippocampus (subgranular zone and hilus) ([2]; rats, 1 mg/kg for 1 week, 30 days after treatment, unbiased stereology): 19633±2677

NC(CCCP(=O)(O)O)C(=O)O [D-AP5]
neurogenesis enhancement by excitation ([3]; delayed application of D-AP5 on day 5, n=7): 2.76±0.95 fold
excitation-induced neurogenesis ([3]; fixed substrate, K+ depolarization, nifedipine 10 μM, D-AP5 50 μM): inhibited
basal neurogenesis ([3]; fixed substrate, no stimulation, D-AP5 50 μM): inhibited
neurogenesis in the basal (Na) condition [4]: significant inhibition
excitation-induced neurogenesis ([4]; depolarization or glutamate, D-AP5 50 μM): blocked

COC(=O)c1c(C)[nH]c(C)c1C(=O)c1ccccc1Cc1ccccc1 [FPL 64176]
neurogenesis with the agonist as stimulus ([3]; fixed substrate): enhancement of neurogenesis
neurogenesis after three 5 min pulses ([3]; fixed substrate, pulses on days 1, 3 and 5): enhanced neurogenesis to a similar extent as continuous excitatory stimulation; also recorded: effective
fraction of newborn (BrdU+) cells assuming the neuronal phenotype (Dcx+) ([2]; adult rats, 4 mg/kg daily for 1 week): relative increase
overt dystonias [5]: did not lead to overt dystonias
treated animals that died shortly before sacrifice ([5]; 7th experimental day): two

O=c1[nH]c(=O)n([C@H]2C[C@H](O)[C@@H](CO)O2)cc1F [FUDR, 5-fluoro-2′-deoxyuridine]
cells killed [3, 10]: more than 95%
neurogenic effects of excitation [3, 10]: abolished

CN[C@H](CC(=O)O)C(=O)O [NMDA]
neurogenesis with the agonist as stimulus ([3]; fixed substrate): significant increase

NC1=N[C@H](O)[C@H]2[C@H]3O[C@]4(O)O[C@@H]([C@@H](O)[C@@]2(N1)[C@@H]4O)[C@]3(O)CO [TTX, Tetrodotoxin]
inward Na+ current evoked with a step from -70 mV to -10 mV [6]: reversibly blocked

CN1C(=O)CN=C(c2ccccc2)c2cc(Cl)ccc21 [diazepam]
GFAP/BrdU double-positive cells (astroglial phenotype) ([2]; rat, in vivo, 4 mg/kg): 58.5%
NG2/BrdU double-positive cells (oligodendroglial phenotype) ([2]; rat, in vivo, 4 mg/kg): 4.7%
fraction of newborn (BrdU+) cells assuming the neuronal phenotype (Dcx+) ([2]; rat, in vivo, 4 mg/kg): significant reduction

N[C@@H](CCC(=O)O)C(=O)O [glutamate]
cells showing an increase in intracellular Ca2+ [7]: 44 of 73
fraction of adult NPCs that received functional excitatory synaptic connections (mEPSCs) [8]: increase
mean MAP2ab intensity in the resulting neuronal progeny [4]: no effect
fraction of NPCs becoming neurons (MAP2ab+) ([4]; 50 μM glutamate from day 1): increase; also recorded: increased neurogenesis
fraction of NPCs becoming neurons (MAP2ab+) ([4]; 50 μM glutamate from day 1, listed as Glu): promoted neurogenesis

COC(=O)C1=C(C)NC(C)=C(C(=O)OC)C1c1ccccc1[N+](=O)[O-] [nifedipine]
GFAP/BrdU double-positive cells (astroglial phenotype) [2, 11]: 58.8%
NG2/BrdU double-positive cells (oligodendroglial phenotype) [2, 11]: 3.5%
